Measurements as given in ChEMBL document CHEMBL1201862, “PubChem BioAssay data set” (2004).
Activity calls are given as the source filed them.

How the values were obtained:
[1] = target: T1, Neuropeptide Y receptor type 2 (Homo sapiens, UniProt P49146); assay: Fluorescence-based cell-based high-throughput dose response assay for potentiators or agonists of NPY-Y2. [Related pubchem assays: 1539 (Screening assay (NPY-Y2 potentiators or agonists).), 1703 (Screening assay (CNGC inhibitors).), 1359 (Screening assay (NPY-Y2 potentiators or agonists).), 1304 (Screening assay (NPY-Y1 potentiators or agonists).) …; type: functional
T1 sequence (P49146 whole entry): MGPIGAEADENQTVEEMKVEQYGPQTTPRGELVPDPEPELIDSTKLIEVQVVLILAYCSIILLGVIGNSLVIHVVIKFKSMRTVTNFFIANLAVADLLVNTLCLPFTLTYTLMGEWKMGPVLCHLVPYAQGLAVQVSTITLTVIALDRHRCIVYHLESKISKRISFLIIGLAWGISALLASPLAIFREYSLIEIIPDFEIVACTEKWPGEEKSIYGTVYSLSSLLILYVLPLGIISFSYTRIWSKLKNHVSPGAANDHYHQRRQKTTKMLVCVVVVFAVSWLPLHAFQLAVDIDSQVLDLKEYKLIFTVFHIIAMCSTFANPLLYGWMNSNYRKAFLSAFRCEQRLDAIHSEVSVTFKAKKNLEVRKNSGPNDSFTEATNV

[2] = target: T2, Neuropeptide Y receptor type 1 (Homo sapiens, UniProt P25929); assay: Fluorescence-based counterscreen for agonists of NPY-Y2: cell-based high-throughput dose response assay for agonists of NPY-Y1.; type: functional
T2 sequence (P25929 whole entry): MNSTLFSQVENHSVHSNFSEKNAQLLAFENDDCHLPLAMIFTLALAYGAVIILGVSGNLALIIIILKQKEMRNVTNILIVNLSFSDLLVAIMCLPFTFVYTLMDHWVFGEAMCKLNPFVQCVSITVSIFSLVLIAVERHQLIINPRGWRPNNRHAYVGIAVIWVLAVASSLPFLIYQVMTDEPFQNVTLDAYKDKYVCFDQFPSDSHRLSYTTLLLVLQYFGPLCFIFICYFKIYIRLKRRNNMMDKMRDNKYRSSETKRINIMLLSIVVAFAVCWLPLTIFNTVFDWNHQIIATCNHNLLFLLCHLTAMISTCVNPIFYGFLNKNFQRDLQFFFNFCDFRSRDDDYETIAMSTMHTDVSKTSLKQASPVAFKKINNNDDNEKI

[3] = target: T2, Neuropeptide Y receptor type 1; assay: Fluorescence-based counterscreen for potentiators or agonists of NPY-Y2: cell-based high-throughput dose response assay for potentiators or agonists of NPY-Y1.; type: functional
HEK293 = assay: Fluorescence-based counterscreen for potentiators or agonists of NPY-Y2: cell-based high-throughput dose response assay to identify inhibitors of cyclic nucleotide gated ion channel (CNGC) activity. In this assay, the parental HEK293 cell line transfected with a cyclic-nucleotide gated ion channel (CNGC)-based cAMP sensor is used to measure inhibition of isoproterenol-induced CNGC activity by test compound.; type: functional; details: Homo sapiens;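 also: stimulus is 1 µM isoproterenol at EC100 plus PDE inhibitor Ro 20-1724 at 25 µM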
[4] = target: T1, Neuropeptide Y receptor type 2; assay: Fluorescence-based cell-based high-throughput dose response assay for agonists of NPY-Y2. [Related pubchem assays: 1703 (Screening assay (CNGC inhibitors).), 1359 (Screening assay (NPY-Y2 potentiators or agonists).), 1304 (Screening assay (NPY-Y1 potentiators or agonists).), 1710 (Screening assay (NPY-Y2 agonists).), 1791 (Summary AID.)]; type: functional
Cytochrome P450 2C9 = Cytochrome P450 2C9 (Homo sapiens, UniProt P11712); details: Potency
Chain of Cytochrome P450 2C9 (P11712 whole entry): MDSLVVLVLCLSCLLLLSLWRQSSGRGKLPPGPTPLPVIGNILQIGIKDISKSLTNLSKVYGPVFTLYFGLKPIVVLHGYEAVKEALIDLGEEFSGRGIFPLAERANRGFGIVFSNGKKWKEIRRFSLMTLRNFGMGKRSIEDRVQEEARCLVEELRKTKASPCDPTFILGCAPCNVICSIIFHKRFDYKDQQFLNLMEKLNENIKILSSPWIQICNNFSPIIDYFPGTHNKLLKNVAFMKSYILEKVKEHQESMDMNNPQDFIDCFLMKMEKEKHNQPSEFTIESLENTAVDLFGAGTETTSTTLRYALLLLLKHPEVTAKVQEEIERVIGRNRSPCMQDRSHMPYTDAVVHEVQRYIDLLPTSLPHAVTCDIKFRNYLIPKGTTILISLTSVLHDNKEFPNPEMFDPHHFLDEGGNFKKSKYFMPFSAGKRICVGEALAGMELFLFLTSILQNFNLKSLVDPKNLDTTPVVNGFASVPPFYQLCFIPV

[5] = Luminescence Cell-Based Dose Response HTS to Identify Activators of Luciferase Translation or Activity in H4 […] Cells. [Related pubchem assays: 1829 (Project Summary), 1814 (Primary HTS)]; type: functional
[6] = viability of uninfected HEp-2 cells – cell-based, HTS, cytotoxicity control for RSV inhibitor project, dose response (AID 2410); type: functional; details: human respiratory syncytial virus
H4 = assay: Luminescence Cell-Based Dose Response HTS to Identify Activators of 5'UTR Stem-Loop Driven Prion Protein mRNA Translation in H4 Neuroglioblastoma Cells. [Related pubchem assays: 1829 (Project Summary), 1814 (Primary HTS)]; type: functional; details: Homo sapiens
[7] = Luminescence Cell-Based Dose Confirmation HTS to Identify Activators of 5'UTR Stem-Loop Driven Alpha-Synuclein mRNA Translation in H4 Neuroglioblastoma Cells. [Related pubchem assays: 1829 (Project Summary), 1814 (Primary HTS)]; type: functional
[8] = target: T3, Mannose-6-phosphate isomerase (Homo sapiens, UniProt P34949); assay: MPI enzyme activity inhibition – biochemical, fluorescence intensity, coupled assay, primary screen (AID 1209)
T3 sequence (P34949 whole entry): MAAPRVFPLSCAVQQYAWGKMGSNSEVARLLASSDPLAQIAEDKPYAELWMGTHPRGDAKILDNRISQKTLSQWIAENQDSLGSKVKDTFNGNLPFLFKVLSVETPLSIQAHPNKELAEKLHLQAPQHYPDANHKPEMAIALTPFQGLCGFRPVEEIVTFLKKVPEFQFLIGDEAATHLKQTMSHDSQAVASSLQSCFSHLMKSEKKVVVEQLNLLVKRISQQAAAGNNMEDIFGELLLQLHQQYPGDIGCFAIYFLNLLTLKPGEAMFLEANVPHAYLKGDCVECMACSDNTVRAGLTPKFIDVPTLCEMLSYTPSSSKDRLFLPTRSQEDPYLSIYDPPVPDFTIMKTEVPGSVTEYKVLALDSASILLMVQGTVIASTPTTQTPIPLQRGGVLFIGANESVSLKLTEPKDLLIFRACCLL

[9] = target: T3, Mannose-6-phosphate isomerase; assay: MPI inhibition at elevated mannose 6-phosphate – biochemical, fluorescence intensity, high mannose 6-phosphate, primary screen (AID 1220)
[10] = alpha-synuclein stem-loop luciferase translation blockers – H4 neuroglioma cells, luminescence, confirmation (AID 1988); type: functional, cell-based
BJ [11] = assay: BJ-TERT fibroblast viability loss – cell-based, RAS-independent, luminescence, dose response (AID 1933); type: functional; details: Homo sapiens
[12] = alpha-synuclein stem-loop translation blockers – luminescence, H4 neuroglioblastoma cells, dose confirmation, confirmation (AID 2454); type: functional, cell-based;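 also: H4 neuroglioblastoma cells carrying an alpha-synuclein 5'UTR luciferase reporter; potency for inhibition of the luciferase signal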
[13] = Luminescence Cell-Based Dose Response HTS to Identify Inhibitors of 5'UTR Stem-Loop Driven Prion Protein mRNA Translation in H4 Neuroglioblastoma Cells. [Related pubchem assays: 1827 (Project Summary), 1813 (Primary HTS)]; type: functional
BJ [14] = assay: cells; type: functional, cell-based; details: Homo sapiens
[15] = DRD fibroblast viability loss – cell-based, non-viral oncogenic, luminescence, dose response (AID 1934); type: functional; details: Homo sapiens
BJ [16] = assay: BJ-TERT-LT-ST fibroblast viability loss – cell-based, RAS-independent, luminescence, dose response (AID 1935); type: functional; details: Homo sapiens;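 also: BJ fibroblasts immortalized with TERT plus LT and ST oncogenes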
[17] = luciferase reporter signal suppression in cells – H4 neuroglioma cells, luminescence, dose response (AID 1990); type: functional, cell-based
cells = type: functional, cell-based
[18] = luciferase reporter signal reduction – luminescence, H4-C neuroglioblastoma cells, dose response (AID 2458); type: functional, cell-based;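 also: H4 neuroglioblastoma cells stably carrying a luciferase reporter gene fusion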
BJ [19] = assay: growth inhibition of engineered Ras-driven BJ cells – cell-based, alamar blue fluorescence, cherrypicked samples, dose response (AID 2631); type: functional; details: Homo sapiens;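 also: confirmatory dose-response assay in RAS-dependent BJ fibroblasts engineered with TERT, LT and ST, with cytotoxicity read by fluorescence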
[20] = target: Dual specificity protein phosphatase 3 (Homo sapiens, UniProt P51452); assay: inhibition constants for human DUSP3 – biochemical, colorimetric, SAR follow-up (AID 2004)
Chain of Dual specificity protein phosphatase 3 (P51452 whole entry): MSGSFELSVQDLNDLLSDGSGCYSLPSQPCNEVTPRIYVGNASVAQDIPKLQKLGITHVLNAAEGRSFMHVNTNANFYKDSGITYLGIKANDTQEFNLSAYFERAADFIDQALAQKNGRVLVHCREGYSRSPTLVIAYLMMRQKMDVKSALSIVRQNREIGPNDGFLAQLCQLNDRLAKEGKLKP

Bcl-2-related protein A1 [21] = target: T4, Bcl-2-related protein A1 (Mus musculus, UniProt Q07440); assay: small-molecule antagonists of Bfl-1/BH3 interaction – biochemical, TR-FRET, mouse Bfl-1, confirmation (AID 621);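 also: TR-FRET binding of GST-Bfl-1 to FITC-labelled Bid peptide via terbium antibody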
T4 sequence (Q07440 whole entry): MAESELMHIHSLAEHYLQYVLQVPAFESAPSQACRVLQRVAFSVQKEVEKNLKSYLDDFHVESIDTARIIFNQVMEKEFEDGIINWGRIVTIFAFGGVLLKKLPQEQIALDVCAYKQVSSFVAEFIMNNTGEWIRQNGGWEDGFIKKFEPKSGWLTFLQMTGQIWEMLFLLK

Bcl-2-related protein A1 [22] = target: T4, Bcl-2-related protein A1; assay: Bfl-1 binding inhibitors, SAR follow-up, biochemical, fluorescence polarization (AID 1070)
NS3 = NS3 (Hepatitis C virus, UniProt A3EZJ3); assay: PubChem AID 2173; set-up: species or system Hepacivirus hominis
Chain of NS3 (A3EZJ3 whole entry): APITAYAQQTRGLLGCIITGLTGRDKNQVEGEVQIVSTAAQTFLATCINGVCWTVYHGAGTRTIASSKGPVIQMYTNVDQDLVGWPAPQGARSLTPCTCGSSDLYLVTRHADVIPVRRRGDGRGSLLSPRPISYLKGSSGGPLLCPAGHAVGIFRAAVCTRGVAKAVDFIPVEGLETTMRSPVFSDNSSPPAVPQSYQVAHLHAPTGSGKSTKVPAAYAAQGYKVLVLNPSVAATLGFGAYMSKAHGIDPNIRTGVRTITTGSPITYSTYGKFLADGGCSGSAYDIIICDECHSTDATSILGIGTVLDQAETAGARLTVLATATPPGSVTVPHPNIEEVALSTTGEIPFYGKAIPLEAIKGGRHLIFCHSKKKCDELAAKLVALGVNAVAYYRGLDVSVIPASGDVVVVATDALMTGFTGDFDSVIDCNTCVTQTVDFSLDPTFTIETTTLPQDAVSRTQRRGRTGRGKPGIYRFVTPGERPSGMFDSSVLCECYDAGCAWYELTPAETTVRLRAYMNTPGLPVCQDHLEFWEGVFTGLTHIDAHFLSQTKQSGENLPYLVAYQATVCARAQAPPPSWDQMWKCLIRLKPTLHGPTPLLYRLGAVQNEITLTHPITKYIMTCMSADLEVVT

[23] = IC50 of Artemis nuclease activity blockers – biochemical, fluorescence intensity, dose response (AID 720701); type: functional;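 also: Artemis endonuclease enzyme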
[24] = target: T5, Carboxy-terminal domain RNA polymerase II polypeptide A small phosphatase 1 (Homo sapiens, UniProt Q9GZU7); assay: CTDSP1 inhibitors, concentration-response, biochemical, absorbance readout, ultra-high-throughput screen actives (AID 540297); type: functional
T5 sequence (Q9GZU7 whole entry): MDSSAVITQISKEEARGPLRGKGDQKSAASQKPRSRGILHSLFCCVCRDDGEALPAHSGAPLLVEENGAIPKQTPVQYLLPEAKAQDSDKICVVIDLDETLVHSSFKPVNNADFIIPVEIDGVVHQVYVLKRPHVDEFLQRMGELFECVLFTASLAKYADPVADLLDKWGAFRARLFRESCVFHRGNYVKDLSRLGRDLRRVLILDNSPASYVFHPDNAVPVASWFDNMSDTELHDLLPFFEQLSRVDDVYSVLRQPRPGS

[25] = target: Induced myeloid leukemia cell differentiation protein Mcl-1 (Homo sapiens, UniProt Q07820); type: functional
Chain of Induced myeloid leukemia cell differentiation protein Mcl-1 (Q07820 whole entry): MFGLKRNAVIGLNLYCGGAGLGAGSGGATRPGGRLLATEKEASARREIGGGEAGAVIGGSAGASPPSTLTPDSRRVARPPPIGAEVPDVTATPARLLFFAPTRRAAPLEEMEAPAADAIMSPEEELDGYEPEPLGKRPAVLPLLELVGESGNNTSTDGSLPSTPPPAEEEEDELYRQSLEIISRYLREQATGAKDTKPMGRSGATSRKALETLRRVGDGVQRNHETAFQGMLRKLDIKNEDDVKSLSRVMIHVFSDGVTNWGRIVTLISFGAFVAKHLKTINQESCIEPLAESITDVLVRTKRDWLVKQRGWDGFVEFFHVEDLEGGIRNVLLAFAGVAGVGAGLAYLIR

SMILES: CCN(CC)CC(O)Cn1c2ccccc2c2ccccc21 (stereo unspecified)
- EC50 [1]: > 35.4 µM (not active)
- EC50 [2]: 12.5 µM (not active)
- EC50 [3]: > 35.4 µM (not active)
- EC50 (HEK293): 1.49 µM (active)
- EC50 [4]: 29.6 µM (not active)

SMILES: C=CCOC(=O)C(C(C)=O)C(NC(=O)OC)c1ccc(Cl)cc1 (stereo unspecified)
- AC50 (Cytochrome P450 2C9): 3.16 µM (inconclusive)

SMILES: CCOC(=O)c1c(C)oc2c1c1c(c3ccccc32)OCN(Cc2ccccn2)C1
- EC50 [5]: 12.9 µM (active)
- CC50 [6]: 40.2 µM (active)
- EC50 (H4): 0.816 µM (active)
- EC50 [7]: 1.87 µM (active)
- IC50 [8]: > 50 µM (not active)
- IC50 [9]: > 50 µM (not active)

SMILES: COc1ccc(S(=O)(=O)N2c3ccc(F)cc3CCC2C)cc1 (stereo unspecified)
- EC50 [10]: < 0.1 µM (active)
- EC50 (BJ [11]): 0.675 µM (active)
- EC50 [12]: 1.01 µM (active)
- EC50 [13]: < 0.1 µM (active)
- EC50 (BJ [14]): 1.21 µM (inconclusive)
- EC50 [15]: 0.776 µM (active)
- EC50 (BJ [16]): 0.716 µM (inconclusive)
- EC50 [17]: 1.8 µM (active)
- EC50 (cells): > 12 µM (inconclusive)
- EC50 [18]: 0.757 µM (active)
- EC50 (BJ [19]): 0.25 µM (active)

SMILES: Cc1cccc(COc2ccc3c(c2)oc(=O)c2ccccc23)c1
- Ki [20]: 26.4 µM (inactive)

SMILES: COc1ccc2nc(O)c(-c3nnn(-c4ccc(Cl)c(Cl)c4)n3)cc2c1
- CC50 [6]: > 50 µM (active)
- IC50 (Bcl-2-related protein A1 [21]): > 100 µM (not active)
- IC50 (Bcl-2-related protein A1 [22]): > 100 µM (not active)

SMILES: O=C(Nc1nc(-c2ccco2)c(-c2ccco2)s1)C1CC(=O)N(c2ccc3c(c2)OCCO3)C1 (stereo unspecified)
- IC50 (NS3): 26.3 µM (not active)
- IC50 [23]: > 20 µM (inactive)
- IC50 [24]: 3.1 µM (active)
- IC50 [25]: 4.4 µM (active)
